Measurements as given in US4461906A, “Pyrrolidine 2-one derivatives” (Hoffmann-La Roche Inc., priority 1979, dated 1984).

Assay: Acute toxicity, single oral administration to mice
Conditions: mouse, in vivo, p.o.

First: COc1ccc(C(=O)N2CCC(O)C2=O)cc1 (racemic) [A]
Second: COc1ccc(C(=O)N2CC(O)CC2=O)cc1 (racemic) [C, (R,S)-1-(p-Methoxybenzoyl)-4-hydroxy-2-pyrrolidinone]
The LD50 of the first is higher: > 5000 mg/kg for the first, 2000 to 4000 mg/kg for the second.

`COc1ccc(C(=O)N2CCCC2=O)cc1O` [B, 1-(3-Hydroxy-4-methoxybenzoyl)-2-pyrrolidinone] gave an LD50 of 1250 to 2500 mg/kg.
